Counter-ions that a name gives are not always drawn. Values belong to the compound of their own block, whether it stands above or below them.
Experiments:
[1] = Stability of the mixtures after 2-4 mths at 4° C.; assay type: physicochemical; set-up: key to Stability* After 2-4 mths + at 4° C.: S-stable; PS—partially stable; NS—not stable
[2] = Ability of polymer counter ion pair to solubilise lipid: visual clarity of polymer counter ion/PL mixtures as pH is adjusted; conditions: for ion pairing with SMA 1:1 leading to formation of SMA/PL macromolecular assemblies: hydrochloride salts as cationic counter ions
[3] = SMA 1:1 50 mg, DLPC 20 mg, 2 ml, amine HCl: isopentylamine 3 mg, isobutylamine 9 mg, tyramine 5-6 mg, diphenhydramine 2.5-4 mg, phenylalanine ethyl ester 10 mg, tolazoline 5 mg, naphazoline 8 mg total
[4] = SMA 1:1 50 mg, DLPC 20 mg, 2 ml, phenylalanine ethyl ester 'Cleared,', tolazoline 'Remains clear overnight,', naphazoline 'Virtually clear'
[5] = SMA 1:1 50 mg, DLPC 20 mg (2.5:1), 2 ml, amine HCl [% w/w]: isopentylamine 3 mg [0.15], isobutylamine 9 mg [0.45] (clears on standing 3 days), tyramine 5-6 mg [0.25-0.3], diphenhydramine 2.5-4 mg [0.13-0.2], phenylalanine ethyl ester 10 mg [0.5], tolazoline 5 mg [0.25], naphazoline 5 mg, start pH 7 or 8
[6] = SMA 1:1 50 mg, DLPC 20 mg, 2 ml, naphazoline HCl further 3 mg, 8 mg [0.4% w/w] total

Compound: c1ccc(CC2=NCCN2)cc1 [2-Benzyl-2-imidazoline (tolazoline), 2-benzyl-2-imidazoline, reference compound]
- Stability* After 2-4 mths + at 4° C. [1, 3]: S
- Stability, appearance in words [1, 4]: clear
- pH for clear sample ([2]; Poly(methacrylic acid) sodium 4-6k 50 mg (preformed PMA + Bz), DLPC 10 mg (5:1), 2 ml, start pH 7-8, tolazoline HCl 22 mg [1.1% w/w], printed 'ppt & clear'): 6, ppt &
- pH for clear sample [2, 5]: 7-8,
- collapse pK of the 1:1 SMA polymer when associating with PL ([2]; imidazoline counter ion in place of a primary amine): ~7

Compound: Cl.NCCc1ccccc1 [PEA, 2-Phenylethylamine hydrochloride]
- Stability* After 2-4 mths + at 4° C. ([1]; SMA 1:1 40 mg, DLPC 20 mg, 1.6 ml, PEA HCl 4.4 mg [0.25% w/w]): NS
- Stability* After 2-4 mths + at 4° C. ([1]; SMA 1:1 50 mg, DLPC 25 mg, 2 ml, PEA HCl 40 mg [2% w/w]): PS
- collapse pH ([2]; 2% PEA added to a 2.5% solution of 1:1 SMA): 8-9
- pH for clear sample ([2]; SMA 1:1 40 mg, DLPC 20 mg (2:1), final vol 1.6 ml, PEA HCl 4.4 mg [0.25% w/w]): 7, Clear
- pH for clear sample ([2]; SMA 1:1 40 mg, DLPC 20 mg, final vol 1.64 ml, further 2.9 mg PEA HCl, 7.3 mg [0.45% w/w] total): 10, Clear
- pH for clear sample ([2]; SMA 1:1 50 mg, DLPC 25 mg (2:1), final vol 2 ml, PEA HCl 40 mg [2% w/w]): 8.5 clear
- pH for clear sample ([2]; SMA 2:1 50 mg, DLPC 25 mg (polymer:lipid 2:1), final vol 2 ml, PEA HCl 40 mg [2% w/w]): 9 clear
- pH over which the polymer collapses to interact with phospholipid ([2]; ratio SMA(1:1):PEA 5:4): 8.5
- pH over which the polymer collapses to interact with phospholipid ([2]; ratio SMA(1:1):PEA 9:1): 7.0

Compound: c1ccc2c(CC3=NCCN3)cccc2c1 [Naphazoline, naphazoline hydrochloride, reference compound]
- Stability* After 2-4 mths + at 4° C. [1, 3]: PS
- Stability, appearance in words [1, 4]: clear
- pH for clear sample [2, 5]: 8, Clear
- pH at which sample is cloudy [2, 6]: Cloudy 7,
- pH for clear sample [2, 6]: Clear 8-9.
- ion pairing with SMA 1:1 leading to formation of SMA/PL macromolecular assemblies [2]: can also surprisingly be used as ion pairs

Compound: CC(C)CCN [Isopentylamine, Isopentyl amine]
- Stability* After 2-4 mths + at 4° C. [1, 3]: NS
- pH for clear sample [2, 5]: 7, Clear

Compound: CN(C)CCCC1c2ccccc2CCc2ccccc21 [amitryptyline hydrochloride, reference compound]
- ion pairing with SMA 1:1 leading to formation of SMA/PL macromolecular assemblies [2]: only partially formed

Compound: COc1cc(C(O)CN)ccc1O (stereo not drawn) [normetanephrine]
- ion pairing with SMA 1:1 leading to formation of SMA/PL macromolecular assemblies [2]: failed

Compound: CC(C)CN [Isobutylamine]
- Stability, appearance in words ([1]; Poly(methacrylic acid) sodium 4-6k 50 mg, DLPC 10 mg, isobutyl amine HCl 10 mg [0.5% w/w]): Clear
- Stability, appearance in words ([1]; Poly(methacrylic acid) sodium 4-6k 50 mg, DLPC 10 mg, isobutyl amine HCl 24 mg then 36 mg total, printed 'Clear overnight few white ppt particles'): Clear
- Stability* After 2-4 mths + at 4° C. [1, 3]: S
- pH for clear sample ([2]; Poly(maleic acid) 50 mg, DLPC 2 mg (25:1), isobutyl amine HCl further 5 mg, 20 mg [1.0% w/w] total, printed 'No clearing.'): No
- pH for clear sample ([2]; Poly(maleic acid) 50 mg, DLPC 2 mg, isobutyl amine HCl further 5 mg, 25 mg [1.25% w/w] total, at pH 8, printed '8, No clearing.'): 8, No
- pH for clear sample ([2]; Poly(maleic acid) 50 mg, DLPC further 2, total 4 mg (12.5:1), isobutyl amine HCl 25 mg, complete clearing, fine white flecks): 3, Complete
- pH at which ppt forms ([2]; Poly(maleic acid) 50 mg, DLPC total 4 mg (12.5:1), isobutyl amine HCl 25 mg): 4 ppt.
- pH for clear sample ([2]; Poly(maleic acid) ex PolyS 50 mg, 2 ml, start pH 8, isobutyl amine HCl 15 mg [0.75% w/w], no DLPC entered in this line): 7
- pH at which ppt forms ([2]; Poly(methacrylic acid) sodium 4-6k 50 mg, DLPC 10 mg (5:1), 2 ml, start pH 6, isobutyl amine HCl 10 mg [0.5% w/w]): 4, ppt
- pH for clear sample ([2]; Poly(methacrylic acid) sodium 4-6k 50 mg, DLPC 10 mg, isobutyl amine HCl 24 mg [1.2% w/w] total): ppt, 5
- pH at which slight clouding occurs ([2]; Poly(methacrylic acid) sodium 4-6k 50 mg, DLPC 10 mg, isobutyl amine HCl 36 mg [1.8% w/w] total): 5, slight
- pH for clear sample [2, 5]: 8, clears

Compound: CCOC(=O)[C@@H](N)Cc1ccccc1.Cl [Phenylalanine ethyl ester, L-phenylalanine ethyl ester hydrochloride]
- Stability* After 2-4 mths + at 4° C. [1, 3]: PS
- Stability, appearance in words [1, 4]: Cleared,
- pH for clear sample [2, 5]: 8, Clears

Compound: CCOC(=O)c1ccc(N)cc1 [benzocaine, reference compound]
- ion pairing with SMA 1:1 leading to formation of SMA/PL macromolecular assemblies [2]: failed

Compound: CN(C)CCOC(c1ccccc1)c1ccccc1 [Diphenhydramine, diphenhydramine hydrochloride, reference compound]
- pH at which ppt forms ([2]; SMA 1:1 50 mg, DLPC 20 mg, 2 ml, diphenhydramine HCl 2.5-4 mg [0.13-0.2% w/w]): ppt 6

Further lines, with some results ahead:

- ion pairing with SMA 1:1 leading to formation of SMA/PL macromolecular assemblies [2]: failed
Compound: N[C@@H](Cc1ccc(O)c(O)c1)C(=O)O [L-dopa, reference compound]

- ion pairing with SMA 1:1 leading to formation of SMA/PL macromolecular assemblies [2]: failed
Compound: NC[C@H](O)c1ccc(O)c(O)c1 [L-norepinephrine, reference compound]

- Stability* After 2-4 mths + at 4° C. [1, 3]: S
Compound: NCCc1ccc(O)cc1 [Tyramine, tyramine]
- ion pairing with SMA 1:1 leading to formation of SMA/PL macromolecular assemblies [2]: can also surprisingly be used as ion pairs

- ion pairing with SMA 1:1 leading to formation of SMA/PL macromolecular assemblies [2]: failed
Compound: NCC(O)c1ccc(O)cc1 (stereo not drawn) [octopamine]

- ion pairing with SMA 1:1 leading to formation of SMA/PL macromolecular assemblies [2]: failed
Compound: Nc1ccc(C(=O)O)cc1 [4-amino benzoic acid (PABA), 4-amino benzoic acid]

- ion pairing with SMA 1:1 leading to formation of SMA/PL macromolecular assemblies [2]: failed
Compound: NCCc1ccc(O)c(O)c1 [dopamine, reference compound]

— patent publication US20220273562A1, “HYDROPHOBICALLY ASSOCIATING POLYMER COUNTER ION PAIR COMPLEXES” (MALVERN COSMECEUTICS LIMITED, priority 2019, published 2022)
